{"source": "patent US20080009418A1", "about": "“Selective Inhibitors” (Alchemia LTD., priority 2004, published 2008)", "key": {"[1]": {"biological_target": "T1, Mouse urotensin (mUR2) (Mus musculus, UniProt Q8VIH9)", "T1 construct": "purchased Perkin Elmer Biosignal", "T1 sequence (Q8VIH9 1-385)": "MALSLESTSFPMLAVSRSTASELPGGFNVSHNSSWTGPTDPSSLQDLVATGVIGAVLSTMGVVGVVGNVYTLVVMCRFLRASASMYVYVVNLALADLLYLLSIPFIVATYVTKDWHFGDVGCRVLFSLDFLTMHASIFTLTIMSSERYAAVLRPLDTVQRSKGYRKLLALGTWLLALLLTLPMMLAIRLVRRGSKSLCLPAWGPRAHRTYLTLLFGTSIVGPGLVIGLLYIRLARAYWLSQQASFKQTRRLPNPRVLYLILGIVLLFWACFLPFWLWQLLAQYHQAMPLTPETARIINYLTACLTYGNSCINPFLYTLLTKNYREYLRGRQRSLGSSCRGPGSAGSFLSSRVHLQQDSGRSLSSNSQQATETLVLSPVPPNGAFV", "assay": "Radioligand binding, mouse urotensin mUR2 membranes, FlashPlate, [125I]-Urotensin II", "conditions": "compound at 10 μM; for A11 radioligand binding inhibition: mouse urotensin mUR2 membranes", "how_it_was_run": "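Cloned mouse urotensin (mUR2) receptor membranes from Perkin Elmer Biosignal were immobilized in FlashPlate microplates using a proprietary coating. Each well got 19.5 μl buffer, then 0.5 μl of DMSO, reference ligand, or compound. Adding 5 μl of [125I]-Urotensin II, diluted to 5× final concentration in binding buffer, started binding. Plates were sealed with TopSeal-A and incubated 1 hour at room temperature in the dark. Wells were counted for 30 seconds each on a TopCount after a 60-second delay, and percentage inhibition was calculated.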"}, "[2]": {"biological_target": "T2, Human melanocortin (MC5) (Homo sapiens, UniProt P33032)", "T2 construct": "purchased Perkin Elmer Biosignal", "T2 sequence (P33032 whole entry)": "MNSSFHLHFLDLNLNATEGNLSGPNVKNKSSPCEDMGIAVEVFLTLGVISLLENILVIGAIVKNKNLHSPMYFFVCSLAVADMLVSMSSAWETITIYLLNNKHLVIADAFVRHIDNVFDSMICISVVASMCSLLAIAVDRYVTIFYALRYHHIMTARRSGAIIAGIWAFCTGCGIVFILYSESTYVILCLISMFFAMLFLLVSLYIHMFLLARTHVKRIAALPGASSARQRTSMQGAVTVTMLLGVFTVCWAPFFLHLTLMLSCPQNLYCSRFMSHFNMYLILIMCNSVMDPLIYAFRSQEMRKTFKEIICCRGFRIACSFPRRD", "assay": "Radioligand binding, human melanocortin MC5 membranes, FlashPlate, [125I]-NDP-αMSH", "conditions": "compound at 10 μM; for A5 radioligand binding inhibition: human melanocortin MC5 membranes", "how_it_was_run": "(§1)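 Cloned human receptor membranes were coated onto FlashPlate wells and incubated with radioligand and compound (added from a 0.5 mM DMSO daughter plate) for 1 hour at room temperature in the dark. Scintillation counting gave percent inhibition, with DMSO defining total and reference ligand defining non-specific binding.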"}, "[3]": {"biological_target": "T3, Human Melanocortin (MC3) (Homo sapiens, UniProt P41968)", "T3 construct": "purchased Perkin Elmer Biosignal", "T3 sequence (P41968 whole entry)": "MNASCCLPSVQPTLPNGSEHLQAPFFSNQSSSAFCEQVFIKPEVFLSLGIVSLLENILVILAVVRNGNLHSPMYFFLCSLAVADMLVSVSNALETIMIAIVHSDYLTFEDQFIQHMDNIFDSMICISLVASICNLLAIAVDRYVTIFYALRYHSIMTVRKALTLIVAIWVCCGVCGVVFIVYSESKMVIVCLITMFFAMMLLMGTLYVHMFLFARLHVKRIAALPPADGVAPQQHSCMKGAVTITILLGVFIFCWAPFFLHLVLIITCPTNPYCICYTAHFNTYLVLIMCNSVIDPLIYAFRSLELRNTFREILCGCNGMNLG", "assay": "Radioligand binding, human melanocortin MC3 membranes, FlashPlate, [125I]-NDP-αMSH", "conditions": "compound at 10 μM; for A3 radioligand binding inhibition: human melanocortin MC3 membranes", "how_it_was_run": "as §1"}, "[4]": {"biological_target": "T4, Human μ-opioid (MOP) (Homo sapiens, UniProt P35372)", "T4 construct": "purchased Perkin Elmer Biosignal", "T4 sequence (P35372 whole entry)": "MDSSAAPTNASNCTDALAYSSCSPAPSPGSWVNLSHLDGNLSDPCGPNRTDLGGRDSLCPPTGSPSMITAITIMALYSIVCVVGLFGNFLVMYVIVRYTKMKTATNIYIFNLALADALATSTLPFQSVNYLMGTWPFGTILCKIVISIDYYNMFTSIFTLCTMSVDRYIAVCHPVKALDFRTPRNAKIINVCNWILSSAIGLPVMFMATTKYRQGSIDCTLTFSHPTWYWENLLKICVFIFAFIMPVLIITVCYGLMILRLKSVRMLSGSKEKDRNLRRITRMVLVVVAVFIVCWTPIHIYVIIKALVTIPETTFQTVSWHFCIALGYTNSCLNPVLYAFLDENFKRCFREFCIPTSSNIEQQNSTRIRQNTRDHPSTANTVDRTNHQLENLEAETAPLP", "assay": "Radioligand binding, human μ-opioid (MOP) membranes, FlashPlate, [3H]-Naloxone", "conditions": "compound at 10 μM; for A7 radioligand binding inhibition: human μ-opioid (MOP) membranes", "how_it_was_run": "as §1"}, "[5]": {"biological_target": "T5, Human melanin-concentrating hormone (MCH1) (Homo sapiens, UniProt Q99705)", "T5 construct": "purchased Perkin Elmer Biosignal", "T5 sequence (Q99705 whole entry)": "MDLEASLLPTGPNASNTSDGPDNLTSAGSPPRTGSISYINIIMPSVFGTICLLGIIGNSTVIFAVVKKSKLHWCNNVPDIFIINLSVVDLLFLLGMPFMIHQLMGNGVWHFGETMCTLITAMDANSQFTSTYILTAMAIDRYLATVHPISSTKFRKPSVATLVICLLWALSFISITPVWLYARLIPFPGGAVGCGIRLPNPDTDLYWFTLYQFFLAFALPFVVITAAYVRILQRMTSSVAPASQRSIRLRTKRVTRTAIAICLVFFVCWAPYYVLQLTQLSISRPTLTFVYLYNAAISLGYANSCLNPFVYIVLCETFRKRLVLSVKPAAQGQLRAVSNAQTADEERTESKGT", "assay": "Radioligand binding, human melanin-concentrating hormone MCH1 membranes, FlashPlate, [125I]-S36057", "conditions": "compound at 10 μM; for A6 radioligand binding inhibition: human MCH1 membranes", "how_it_was_run": "as §1"}, "[6]": {"biological_target": "T6, Human neurokinin (NK1) (Homo sapiens, UniProt P25103)", "T6 construct": "purchased Perkin Elmer Biosignal", "T6 sequence (P25103 whole entry)": "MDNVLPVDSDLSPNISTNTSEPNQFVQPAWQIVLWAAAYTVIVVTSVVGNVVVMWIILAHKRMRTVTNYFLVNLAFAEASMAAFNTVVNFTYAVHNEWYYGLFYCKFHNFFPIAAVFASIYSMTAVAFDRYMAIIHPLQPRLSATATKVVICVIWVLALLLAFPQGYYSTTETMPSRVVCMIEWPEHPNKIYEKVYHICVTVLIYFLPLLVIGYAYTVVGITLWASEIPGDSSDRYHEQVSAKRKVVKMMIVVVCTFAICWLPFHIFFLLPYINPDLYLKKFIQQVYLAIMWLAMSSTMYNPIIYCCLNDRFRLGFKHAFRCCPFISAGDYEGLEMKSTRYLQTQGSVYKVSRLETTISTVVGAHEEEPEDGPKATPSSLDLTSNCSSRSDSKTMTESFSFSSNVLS", "assay": "Radioligand binding, human neurokinin NK1 membranes, filtration, [125I]-Substance P", "conditions": "compound at 10 μM; for A8 radioligand binding inhibition: human neurokinin NK1 membranes", "how_it_was_run": "(§2)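 Percent inhibition of radioligand binding measured on recombinant human membranes: NK1 with [125I]-Substance P, KOP with [3H]-Diprenorphine. Incubation 1 h at room temperature, then harvest onto 0.3% PEI-soaked filters, cold Tris-HCl pH 7.4 washes and scintillation counting; non-specific binding from reference ligand wells.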"}, "[7]": {"biological_target": "T7, Human δ-opioid (DOP) (Homo sapiens, UniProt P41143)", "T7 construct": "purchased Perkin Elmer Biosignal", "T7 sequence (P41143 whole entry)": "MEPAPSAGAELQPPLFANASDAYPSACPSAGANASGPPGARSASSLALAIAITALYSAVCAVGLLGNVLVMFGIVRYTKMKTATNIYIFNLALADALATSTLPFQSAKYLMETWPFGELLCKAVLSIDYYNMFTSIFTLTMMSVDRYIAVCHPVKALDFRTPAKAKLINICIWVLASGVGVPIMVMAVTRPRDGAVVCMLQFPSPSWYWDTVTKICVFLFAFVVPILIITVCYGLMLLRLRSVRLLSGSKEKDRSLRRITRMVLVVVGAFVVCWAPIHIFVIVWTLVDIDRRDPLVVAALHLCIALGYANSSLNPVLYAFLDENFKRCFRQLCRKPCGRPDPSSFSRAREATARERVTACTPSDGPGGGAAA", "assay": "Radioligand binding, human δ-opioid (DOP) membranes, FlashPlate, [3H]-Bremazocine", "conditions": "compound at 10 μM; for A1 radioligand binding inhibition: human δ-opioid (DOP) membranes", "how_it_was_run": "as §1"}, "[8]": {"biological_target": "T8, Human Melanocortin (MC4) (Homo sapiens, UniProt P32245)", "T8 construct": "purchased Perkin Elmer Biosignal", "T8 sequence (P32245 whole entry)": "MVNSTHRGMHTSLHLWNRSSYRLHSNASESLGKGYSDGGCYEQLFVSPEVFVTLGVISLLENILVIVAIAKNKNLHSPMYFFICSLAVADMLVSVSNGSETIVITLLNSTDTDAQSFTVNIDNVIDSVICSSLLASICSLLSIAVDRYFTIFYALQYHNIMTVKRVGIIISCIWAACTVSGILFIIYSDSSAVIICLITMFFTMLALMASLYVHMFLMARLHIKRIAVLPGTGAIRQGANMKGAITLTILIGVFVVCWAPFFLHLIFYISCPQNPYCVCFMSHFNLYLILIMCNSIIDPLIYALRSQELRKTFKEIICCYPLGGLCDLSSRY", "assay": "Radioligand binding, human melanocortin MC4 membranes, FlashPlate, [125I]-NDP-αMSH", "conditions": "compound at 10 μM; for A4 radioligand binding inhibition: human melanocortin MC4 membranes", "how_it_was_run": "as §1"}, "[9]": {"biological_target": "T9, Human neuropeptide Y (NPY-Y1) (Homo sapiens, UniProt P25929)", "T9 construct": "purchased Perkin Elmer Biosignal", "T9 sequence (P25929 1-384)": "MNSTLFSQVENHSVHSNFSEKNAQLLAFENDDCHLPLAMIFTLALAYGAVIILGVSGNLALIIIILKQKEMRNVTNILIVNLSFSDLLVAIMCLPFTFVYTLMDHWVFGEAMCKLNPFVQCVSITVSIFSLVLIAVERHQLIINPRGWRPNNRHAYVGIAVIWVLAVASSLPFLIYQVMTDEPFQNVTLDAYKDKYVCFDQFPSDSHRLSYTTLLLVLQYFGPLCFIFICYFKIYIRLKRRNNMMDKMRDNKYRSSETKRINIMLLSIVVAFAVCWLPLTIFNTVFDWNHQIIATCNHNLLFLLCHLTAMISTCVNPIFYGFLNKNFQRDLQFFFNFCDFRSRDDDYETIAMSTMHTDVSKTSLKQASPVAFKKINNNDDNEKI", "assay": "Radioligand binding, human neuropeptide Y NPY-Y1 membranes, FlashPlate, [125I]-PYY", "conditions": "compound at 10 μM; for A9 radioligand binding inhibition: human NPY-Y1 membranes", "how_it_was_run": "as §1"}, "[10]": {"biological_target": "T10, Human opioid (ORL1) (Homo sapiens, UniProt P41146)", "T10 construct": "purchased Perkin Elmer Biosignal", "T10 sequence (P41146 whole entry)": "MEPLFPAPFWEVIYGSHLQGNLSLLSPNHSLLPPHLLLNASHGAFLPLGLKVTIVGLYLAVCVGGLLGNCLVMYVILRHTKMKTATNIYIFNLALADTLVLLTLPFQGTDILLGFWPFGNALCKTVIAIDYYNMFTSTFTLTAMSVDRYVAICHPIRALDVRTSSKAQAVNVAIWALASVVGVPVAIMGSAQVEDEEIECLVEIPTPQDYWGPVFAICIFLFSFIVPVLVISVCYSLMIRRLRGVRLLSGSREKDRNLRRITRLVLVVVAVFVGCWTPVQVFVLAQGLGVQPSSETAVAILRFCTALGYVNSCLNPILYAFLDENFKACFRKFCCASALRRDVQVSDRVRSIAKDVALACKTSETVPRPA", "assay": "Radioligand binding, human opioid ORL1 membranes, FlashPlate, [125I]-Nociceptin", "conditions": "compound at 10 μM; for A10 radioligand binding inhibition: human ORL1 membranes", "how_it_was_run": "as §1"}, "[11]": {"biological_target": "T11, Human κ-Opioid (KOP) (Homo sapiens, UniProt P41145)", "T11 construct": "purchased Perkin Elmer Biosignal", "T11 sequence (P41145 whole entry)": "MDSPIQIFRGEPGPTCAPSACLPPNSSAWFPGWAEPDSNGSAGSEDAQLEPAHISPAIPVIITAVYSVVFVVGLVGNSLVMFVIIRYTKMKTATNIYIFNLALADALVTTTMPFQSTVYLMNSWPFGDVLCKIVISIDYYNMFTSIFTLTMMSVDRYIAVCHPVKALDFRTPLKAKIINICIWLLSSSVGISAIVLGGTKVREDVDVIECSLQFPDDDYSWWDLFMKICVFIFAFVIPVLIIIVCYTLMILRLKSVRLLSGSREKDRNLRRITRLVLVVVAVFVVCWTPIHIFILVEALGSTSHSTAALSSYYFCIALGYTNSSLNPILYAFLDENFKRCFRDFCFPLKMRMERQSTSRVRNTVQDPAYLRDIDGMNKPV", "assay": "Radioligand binding, human κ-opioid (KOP) membranes, filtration, [3H]-Diprenorphine", "conditions": "compound at 10 μM; for A2 radioligand binding inhibition: human κ-opioid (KOP) membranes", "how_it_was_run": "as §2"}}, "data": [{"smiles": "N=C(N)NCC(=O)NC1COC(COCc2ccc3ccccc3c2)C(O)C1OCc1ccc(Cl)cc1", "note": "(stereo not drawn) [compound 540]", "values": [{"measurement": "A11: inhibition of radioligand binding, mouse urotensin (mUR2)", "setting": "[1]; [125I]-Urotensin II", "result": "− (“−” indicates less than 50% inhibition at 10 μM)"}, {"measurement": "A5: inhibition of radioligand binding, human melanocortin (MC5)", "setting": "[2]; [125I]-NDP-αMSH", "result": "− (“−” indicates less than 50% inhibition at 10 μM)"}, {"measurement": "A3: inhibition of radioligand binding, human melanocortin (MC3)", "setting": "[3]; [125I]-NDP-αMSH", "result": "− (“−” indicates less than 50% inhibition at 10 μM)"}, {"measurement": "A7: inhibition of radioligand binding, human μ-opioid (MOP)", "setting": "[4]; [3H]-Naloxone", "result": "− (“−” indicates less than 50% inhibition at 10 μM)"}, {"measurement": "A6: inhibition of radioligand binding, human melanin-concentrating hormone (MCH1)", "setting": "[5]; [125I]-S36057", "result": "− (“−” indicates less than 50% inhibition at 10 μM)"}, {"measurement": "A8: inhibition of radioligand binding, human neurokinin (NK1)", "setting": "[6]; [125I]-Substance P", "result": "+ (“+” indicates greater than 50% inhibition at 10 μM)"}, {"measurement": "A1: inhibition of radioligand binding, human δ-opioid (DOP)", "setting": "[7]; [3H]-Bremazocine", "result": "− (“−” indicates less than 50% inhibition at 10 μM)"}, {"measurement": "A4: inhibition of radioligand binding, human melanocortin (MC4)", "setting": "[8]; [125I]-NDP-αMSH", "result": "+ (“+” indicates greater than 50% inhibition at 10 μM)"}, {"measurement": "A9: inhibition of radioligand binding, human neuropeptide Y (NPY-Y1)", "setting": "[9]; [125I]-PYY", "result": "− (“−” indicates less than 50% inhibition at 10 μM)"}, {"measurement": "A10: inhibition of radioligand binding, human opioid (ORL1)", "setting": "[10]; [125I]-Nociceptin", "result": "− (“−” indicates less than 50% inhibition at 10 μM)"}, {"measurement": "A2: inhibition of radioligand binding, human κ-opioid (KOP)", "setting": "[11]; [3H]-Diprenorphine", "result": "− (“−” indicates less than 50% inhibition at 10 μM)"}]}, {"smiles": "CO[C@H]1[C@H](O)[C@@H](COCc2ccc(-c3ccccc3)cc2)OC(OCc2ccc(-c3ccccc3)cc2)[C@@H]1NC(=O)CCCNC(=N)N", "note": "(stereo partly drawn) [compound 54]", "values": [{"measurement": "A11 radioligand binding inhibition", "setting": "[1]", "result": "− (“−” indicates less than 50% inhibition at 10 μM)"}, {"measurement": "A5 radioligand binding inhibition", "setting": "[2]", "result": "+ (“+” indicates greater than 50% inhibition at 10 μM)"}, {"measurement": "A3 radioligand binding inhibition", "setting": "[3]", "result": "+ (“+” indicates greater than 50% inhibition at 10 μM)"}, {"measurement": "A7 radioligand binding inhibition", "setting": "[4]", "result": "+ (“+” indicates greater than 50% inhibition at 10 μM)"}, {"measurement": "A6 radioligand binding inhibition", "setting": "[5]", "result": "+ (“+” indicates greater than 50% inhibition at 10 μM)"}, {"measurement": "A8 radioligand binding inhibition", "setting": "[6]", "result": "+ (“+” indicates greater than 50% inhibition at 10 μM)"}, {"measurement": "A1 radioligand binding inhibition", "setting": "[7]", "result": "− (“−” indicates less than 50% inhibition at 10 μM)"}, {"measurement": "A4 radioligand binding inhibition", "setting": "[8]", "result": "+ (“+” indicates greater than 50% inhibition at 10 μM)"}, {"measurement": "A9 radioligand binding inhibition", "setting": "[9]", "result": "− (“−” indicates less than 50% inhibition at 10 μM)"}, {"measurement": "A10 radioligand binding inhibition", "setting": "[10]", "result": "+ (“+” indicates greater than 50% inhibition at 10 μM)"}, {"measurement": "A2 radioligand binding inhibition", "setting": "[11]", "result": "− (“−” indicates less than 50% inhibition at 10 μM)"}]}, {"smiles": "COC[C@H]1OC(OCCc2ccccc2)[C@H](NC(=O)CCCN)[C@@H](OCc2ccc(-c3ccccc3)cc2)[C@@H]1O", "note": "(stereo partly drawn) [compound 42]", "values": [{"measurement": "A11 radioligand binding inhibition", "setting": "[1]", "result": "− (“−” indicates less than 50% inhibition at 10 μM)"}, {"measurement": "A5 radioligand binding inhibition", "setting": "[2]", "result": "+ (“+” indicates greater than 50% inhibition at 10 μM)"}, {"measurement": "A3 radioligand binding inhibition", "setting": "[3]", "result": "− (“−” indicates less than 50% inhibition at 10 μM)"}, {"measurement": "A7 radioligand binding inhibition", "setting": "[4]", "result": "− (“−” indicates less than 50% inhibition at 10 μM)"}, {"measurement": "A6 radioligand binding inhibition", "setting": "[5]", "result": "− (“−” indicates less than 50% inhibition at 10 μM)"}, {"measurement": "A8 radioligand binding inhibition", "setting": "[6]", "result": "− (“−” indicates less than 50% inhibition at 10 μM)"}, {"measurement": "A1 radioligand binding inhibition", "setting": "[7]", "result": "− (“−” indicates less than 50% inhibition at 10 μM)"}, {"measurement": "A4 radioligand binding inhibition", "setting": "[8]", "result": "− (“−” indicates less than 50% inhibition at 10 μM)"}, {"measurement": "A9 radioligand binding inhibition", "setting": "[9]", "result": "− (“−” indicates less than 50% inhibition at 10 μM)"}, {"measurement": "A10 radioligand binding inhibition", "setting": "[10]", "result": "− (“−” indicates less than 50% inhibition at 10 μM)"}, {"measurement": "A2 radioligand binding inhibition", "setting": "[11]", "result": "− (“−” indicates less than 50% inhibition at 10 μM)"}]}]}
